Results: patent US9409966B2, “Glucagon-like peptide-1 derivatives and their pharmaceutical use” (priority 2007, dated 2016)
Read-outs that look alike come from different tables or passages of the source. *1 amine or outer side, *2 acyl side, *3 side chain or, on linkers, in order; H or OH if unused. Where a SMILES comes first, the peptide text is derived from it. Side-chain parts run from the residue outwards. [ ]: non-standard residue; d: D form. The star is where a group is joined. C18 diacid = O=C(O)CCCCCCCCCCCCCCCCC(=O)*; γGlu = O=C(O)[C@H](CCC(=O)[*:2])N[*:1]; AEEA = NCCOCCOCC(=O)O; Aib = CC(C)(N)C(=O)O

What was measured:
human GLP-1 receptor = target: T1, human GLP-1 receptor (Homo sapiens, UniProt P43220); experiment: Stimulation of cAMP formation in a cell line expressing the cloned human GLP-1 receptor; assay type: biochemical
T1 construct: expressed in transfected cells; host or cells: BHK467-12A (tk-ts13) baby hamster kidney cells; purified plasma membranes
T1 sequence (P43220 24-463): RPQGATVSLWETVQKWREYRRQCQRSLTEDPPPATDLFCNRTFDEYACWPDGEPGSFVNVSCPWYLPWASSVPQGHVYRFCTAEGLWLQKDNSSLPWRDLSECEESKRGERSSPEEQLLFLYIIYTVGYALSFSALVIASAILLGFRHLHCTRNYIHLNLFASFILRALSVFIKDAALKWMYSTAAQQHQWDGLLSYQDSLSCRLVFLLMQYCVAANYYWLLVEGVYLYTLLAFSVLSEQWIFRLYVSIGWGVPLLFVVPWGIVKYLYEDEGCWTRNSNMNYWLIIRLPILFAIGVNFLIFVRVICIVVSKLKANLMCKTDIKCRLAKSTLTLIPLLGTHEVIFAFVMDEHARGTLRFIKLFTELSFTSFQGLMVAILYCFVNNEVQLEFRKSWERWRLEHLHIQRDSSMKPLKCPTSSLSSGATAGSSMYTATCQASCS
Procedure: A stable transfected cell line has been prepared at NN A/S, Denmark, and a high expressing clone was selected for screening. The cells were grown at 5% CO2 in DMEM, 5% FCS, 1% Pen/Strep (Penicillin/Streptomycin) and 0.5 mg/ml of the selection marker G418.
Cells at approximate 80% confluence were washed 2× with PBS (Phosphate Buffered Saline) and harvested with Versene (aqueous solution of the tetrasodium salt of ethylenediaminetetraacetic acid), centrifuged 5 min at 1000 rpm and the supernatant removed. The additional steps were all made on ice. […] Suspension in Buffer 2, homogenization and centrifugation was repeated once and the membranes were resuspended in Buffer 2 and ready for further analysis or stored at −80° C.
The functional receptor assay was carried out by measuring the peptide induced cAMP production by The AlphaScreen Technology. […] The capture of cAMP is achieved by using a specific antibody conjugated to acceptor beads. Formed cAMP was counted and measured at a AlphaFusion Microplate Analyzer. The EC50 values were calculated using the Graph-Pad Prisme software (version 5).

[1] = target: human serum albumin (HSA) (Homo sapiens, UniProt P02768); experiment: Albumin binding affinity, competition scintillation proximity assay (SPA)
Chain of human serum albumin (HSA) (P02768 25-609): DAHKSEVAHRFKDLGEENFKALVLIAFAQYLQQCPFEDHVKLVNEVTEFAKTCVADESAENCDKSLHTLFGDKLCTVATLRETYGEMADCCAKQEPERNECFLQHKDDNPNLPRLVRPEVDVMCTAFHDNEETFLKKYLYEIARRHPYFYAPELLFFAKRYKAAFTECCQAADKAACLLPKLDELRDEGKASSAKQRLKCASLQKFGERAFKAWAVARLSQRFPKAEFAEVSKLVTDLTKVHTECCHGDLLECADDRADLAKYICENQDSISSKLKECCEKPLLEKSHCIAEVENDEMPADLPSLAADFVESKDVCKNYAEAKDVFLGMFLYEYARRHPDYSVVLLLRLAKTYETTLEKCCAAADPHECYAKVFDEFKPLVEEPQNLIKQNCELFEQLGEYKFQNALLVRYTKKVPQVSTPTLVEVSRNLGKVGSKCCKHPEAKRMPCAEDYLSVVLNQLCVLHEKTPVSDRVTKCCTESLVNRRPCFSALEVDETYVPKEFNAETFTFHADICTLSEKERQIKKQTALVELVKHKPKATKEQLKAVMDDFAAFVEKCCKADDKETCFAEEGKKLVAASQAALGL
Procedure: Streptavidin-SPA beads (GE Healthcare RPNQ0009) were incubated with biotinylated HSA for 5 hours. The beads were washed with buffer to remove unbound HSA. […] After 20 hours of gentle rocking at room temperature the plates were centrifuged and counted on a TopCounter.

[2] = cAMP production, purified plasma membranes from BHK467-12A (tk-ts13), AlphaScreen cAMP Assay Kit, read-out: Potency [EC50/nM]

SMILES | EC50 (human GLP-1 receptor; [2]) | EC50 [1] | EC50 (human GLP-1 receptor)
CC[C@H](C)[C@H](NC(=O)[C@H](Cc1ccccc1)NC(=O)[C@H](CCC(=O)O)NC(=O)[C@H](CCCNC(=N)N)NC(=O)[C@H](C)NC(=O)[C@H](C)NC(=O)[C@H](CCC(N)=O)NC(=O)[C@H](CCC(=O)O)NC(=O)[C@H](CCC(=O)O)NC(=O)[C@H](CC(C)C)NC(=O)[C@H](Cc1ccc(O)cc1)NC(=O)[C@H](CO)NC(=O)[C@H](CO)NC(=O)[C@@H](NC(=O)[C@H](CC(=O)O)NC(=O)[C@H](CO)NC(=O)[C@@H](NC(=O)[C@H](Cc1ccccc1)NC(=O)[C@@H](NC(=O)CNC(=O)[C@H](CCC(=O)O)NC(=O)[C@H](C)NC(=O)CCc1c[nH]cn1)[C@@H](C)O)[C@@H](C)O)C(C)C)C(=O)N[C@@H](C)C(=O)N[C@@H](Cc1c[nH]c2ccccc12)C(=O)N[C@@H](CC(C)C)C(=O)N[C@H](C(=O)N[C@@H](CCCNC(=N)N)C(=O)NCC(=O)N[C@@H](CCCNC(=N)N)C(=O)N[C@@H](CCCCNC(=O)COCCOCCNC(=O)CC[C@H](NC(=O)CC[C@H](NC(=O)CC[C@H](NC(=O)CCCCCCCCCCCCCCCCCCC(=O)O)C(=O)O)C(=O)O)C(=O)O)C(=O)O)C(C)C [Example 25, N-epsilon37-(2-{2-[2-((S)-4-Carboxy-4-{(S)-4-carboxy-4-[(S)-4-carboxy-4-(19-carboxy-nonadecanoylamino)butyrylamino]butyrylamino}butyrylamino)ethoxy]ethoxy}acetyl)[DesaminoHis7,Glu22,Arg26,Arg34,Lys37]GLP-1-(7-37)] | 0.36 nM | 150 to 200 nM | –
CC[C@H](C)[C@H](NC(=O)[C@H](Cc1ccccc1)NC(=O)[C@H](CCC(=O)O)NC(=O)[C@H](CCCNC(=N)N)NC(=O)[C@H](C)NC(=O)[C@H](C)NC(=O)[C@H](CCC(N)=O)NC(=O)[C@H](CCC(=O)O)NC(=O)[C@H](CCC(=O)O)NC(=O)[C@H](CC(C)C)NC(=O)[C@H](Cc1ccc(O)cc1)NC(=O)[C@H](CO)NC(=O)[C@H](CO)NC(=O)[C@@H](NC(=O)[C@H](CC(=O)O)NC(=O)[C@H](CO)NC(=O)[C@@H](NC(=O)[C@H](Cc1ccccc1)NC(=O)[C@@H](NC(=O)CNC(=O)[C@H](CCC(=O)O)NC(=O)C(C)(C)NC(=O)[C@@H](N)Cc1c[nH]cn1)[C@@H](C)O)[C@@H](C)O)C(C)C)C(=O)N[C@@H](C)C(=O)N[C@@H](Cc1c[nH]c2ccccc12)C(=O)N[C@@H](CC(C)C)C(=O)N[C@H](C(=O)N[C@@H](CCCNC(=N)N)C(=O)NCC(=O)N[C@@H](CCCNC(=N)N)C(=O)N[C@@H](CCCCNC(=O)COCCOCCNC(=O)COCCOCCNC(=O)CC[C@H](NC(=O)CCCCCCCCCCCCCCCCC(=O)O)C(=O)O)C(=O)O)C(C)C [Example 27, N-epsilon37-[2-(2-{2-[2-(2-{2-[(S)-4-Carboxy-4-(17-carboxy-heptadecanoylamino)-butyrylamino]-ethoxy}-ethoxy)-acetylamino]-ethoxy}-ethoxy)-acetyl] [Aib8,Glu22,Arg26,Arg34,Lys37]GLP-1-(7-37)] | 0.05 nM | 100 to 150 nM | –
CC[C@H](C)[C@H](NC(=O)[C@H](Cc1ccccc1)NC(=O)[C@H](CCC(=O)O)NC(=O)[C@H](CCCNC(=N)N)NC(=O)[C@H](C)NC(=O)[C@H](C)NC(=O)[C@H](CCC(N)=O)NC(=O)[C@H](CCC(=O)O)NC(=O)[C@H](CCC(=O)O)NC(=O)[C@H](CC(C)C)NC(=O)[C@H](Cc1ccc(O)cc1)NC(=O)[C@H](CO)NC(=O)[C@H](CO)NC(=O)[C@@H](NC(=O)[C@H](CC(=O)O)NC(=O)[C@H](CO)NC(=O)[C@@H](NC(=O)[C@H](Cc1ccccc1)NC(=O)[C@@H](NC(=O)CNC(=O)[C@H](CCC(=O)O)NC(=O)C(C)(C)NC(=O)[C@@H](N)Cc1c[nH]cn1)[C@@H](C)O)[C@@H](C)O)C(C)C)C(=O)N[C@@H](C)C(=O)N[C@@H](Cc1c[nH]c2ccccc12)C(=O)N[C@@H](CC(C)C)C(=O)N[C@H](C(=O)N[C@@H](CCCNC(=N)N)C(=O)NCC(=O)N[C@@H](CCCNC(=N)N)C(=O)N[C@@H](CCCCNC(=O)COCCOCCNC(=O)COCCOCCNC(=O)CC[C@H](NC(=O)[C@H]1CC[C@H](CNC(=O)CCCCCCCCCCCCCCCCCCC(=O)O)CC1)C(=O)O)C(=O)O)C(C)C [Example 32, N-epsilon37-[2-(2-{2-[2-(2-{2-[(S)-4-Carboxy-4-({trans-4-[(19-carboxynonadecanoylamino)methyl]cyclohexanecarbonyl}amino)butyrylamino]ethoxy}ethoxy)acetylamino]ethoxy}ethoxy)acetyl][Aib8,Glu22,Arg26,Arg34,Lys37]GLP-1-(7-37)] | – | 1 to 100 nM | 0.46 nM

Now from value to compound, other results behind:

EC50 (human GLP-1 receptor; [2]) | EC50 [1] | SMILES | EC50 (human GLP-1 receptor)
0.1 nM | 400 to 800 nM | CC[C@H](C)[C@H](NC(=O)[C@H](Cc1ccccc1)NC(=O)[C@H](CCC(=O)O)NC(=O)[C@H](CCCNC(=N)N)NC(=O)[C@H](C)NC(=O)[C@H](C)NC(=O)[C@H](CCC(N)=O)NC(=O)[C@H](CCC(=O)O)NC(=O)[C@H](CCC(=O)O)NC(=O)[C@H](CC(C)C)NC(=O)[C@H](Cc1ccc(O)cc1)NC(=O)[C@H](CO)NC(=O)[C@H](CO)NC(=O)[C@@H](NC(=O)[C@H](CC(=O)O)NC(=O)[C@H](CO)NC(=O)[C@@H](NC(=O)[C@H](Cc1ccccc1)NC(=O)[C@@H](NC(=O)CNC(=O)[C@H](CCC(=O)O)NC(=O)[C@H](C)NC(=O)CCc1c[nH]cn1)[C@@H](C)O)[C@@H](C)O)C(C)C)C(=O)N[C@@H](C)C(=O)N[C@@H](Cc1c[nH]c2ccccc12)C(=O)N[C@@H](CC(C)C)C(=O)N[C@H](C(=O)N[C@@H](CCCNC(=N)N)C(=O)NCC(=O)N[C@@H](CCCNC(=N)N)C(=O)N[C@@H](CCCCNC(=O)COCCOCCNC(=O)COCCOCCNC(=O)CC[C@H](NC(=O)CCCCCCCCCCCCCCCCC(=O)O)C(=O)O)C(=O)O)C(C)C [Example 29, N-epsilon37-[2-(2-{2-[2-(2-{2-[(S)-4-Carboxy-4-(17-carboxy-heptadecanoylamino)-butyrylamino]-ethoxy}-ethoxy)-acetylamino]-ethoxy}-ethoxy)-acetyl] [desaminoHis7,Glu22,Arg26,Arg34,Lys37] GLP-1-(7-37)] | –
1.27 nM | > 2000 nM | CC[C@H](C)[C@H](NC(=O)[C@H](Cc1ccccc1)NC(=O)[C@H](CCC(=O)O)NC(=O)[C@H](CCCNC(=N)N)NC(=O)[C@@H](NC(=O)[C@H](C)NC(=O)[C@H](CCC(N)=O)NC(=O)[C@H](CCC(=O)O)NC(=O)[C@H](CCC(=O)O)NC(=O)[C@H](CCCCN)NC(=O)[C@H](Cc1ccc(O)cc1)NC(=O)[C@H](CO)NC(=O)[C@H](CO)NC(=O)[C@@H](NC(=O)[C@H](CC(=O)O)NC(=O)[C@H](CO)NC(=O)[C@@H](NC(=O)[C@H](Cc1ccccc1)NC(=O)[C@@H](NC(=O)CNC(=O)[C@H](CCC(=O)O)NC(=O)C(C)(C)NC(=O)[C@@H](N)Cc1c[nH]cn1)[C@@H](C)O)[C@@H](C)O)C(C)C)C(C)C)C(=O)N[C@@H](C)C(=O)N[C@@H](CCCCNC(=O)COCCOCCNC(=O)COCCOCCNC(=O)CC[C@H](NC(=O)CCCCCCCCCCCCCCCCC(=O)O)C(=O)O)C(=O)N[C@@H](CC(C)C)C(=O)N[C@H](C(=O)N[C@@H](CCCNC(=N)N)C(=O)N[C@@H](CCCNC(=N)N)C(=O)N[C@@H](CCCNC(=N)N)C(=O)N[C@@H](CCCNC(=N)N)C(=O)O)C(C)C [Example 34, N-epsilon31-[2-(2-{2-[2-(2-{2-[(S)-4-Carboxy-4-(17-carboxyheptadecanoylamino)butyrylamino]ethoxy}ethoxy)acetylamino]ethoxy}ethoxy)acetyl][Aib8,Glu22,Val25,Arg26,Lys31,Arg34,Arg35,Arg37]GLP-1-(7-37)] (H-H[Aib]EGTFTSDVSSYKEEQAVREFIAK([AEEA-AEEA-γGlu-C18 diacid])LVRRRR-OH) | –
0.74 nM | 800 to 1500 nM | CC[C@H](C)[C@H](NC(=O)[C@H](Cc1ccccc1)NC(=O)[C@H](CCC(=O)O)NC(=O)[C@H](CCCNC(=N)N)NC(=O)[C@@H](NC(=O)[C@H](C)NC(=O)[C@H](CCC(N)=O)NC(=O)[C@H](CCC(=O)O)NC(=O)[C@H](CCC(=O)O)NC(=O)[C@H](CCCCN)NC(=O)[C@H](Cc1ccc(O)cc1)NC(=O)[C@H](CO)NC(=O)[C@H](CO)NC(=O)[C@@H](NC(=O)[C@H](CC(=O)O)NC(=O)[C@H](CO)NC(=O)[C@@H](NC(=O)[C@H](Cc1ccccc1)NC(=O)[C@@H](NC(=O)CNC(=O)[C@H](CCC(=O)O)NC(=O)C(C)(C)NC(=O)[C@@H](N)Cc1c[nH]cn1)[C@@H](C)O)[C@@H](C)O)C(C)C)C(C)C)C(=O)N[C@@H](C)C(=O)N[C@@H](CCCCNC(=O)COCCOCCNC(=O)COCCOCCNC(=O)CC[C@H](NC(=O)CCCCCCCCCCCCCCCCC(=O)O)C(=O)O)C(=O)N[C@@H](CC(C)C)C(=O)N[C@H](C(=O)N[C@@H](CCCNC(=N)N)C(=O)N[C@@H](CCCNC(=N)N)C(=O)N[C@@H](CCCNC(=N)N)C(=O)N[C@@H](CCCNC(=N)N)C(=O)N[C@@H](CCCNC(=N)N)C(=O)N[C@@H](CCCNC(=N)N)C(=O)N[C@@H](CCCNC(=N)N)C(=O)N[C@@H](CCCNC(=N)N)C(=O)O)C(C)C [Example 35] (H-H[Aib]EGTFTSDVSSYKEEQAVREFIAK([AEEA-AEEA-γGlu-C18 diacid])LVRRRRRRRR-OH) | –
